# According to patent US4093574A, “Somatostatin analogs and intermediates thereto” (Eli Lilly and Company, priority 1977, dated 1978):
# Where a SMILES comes first, the peptide text is derived from it. Bridges are numbered along the chain shown (N, C = ends). [ ]: non-standard residue; d: D form.
# Columns and labels:
# [1] = system: glucagon and insulin secretion; assay: in vivo inhibition of glucagon and insulin secretion upon stimulation with L-alanine; set-up: species or system mongrel dogs; conditions: fasted dogs, intravenous infusion
# Procedure: D-Ser^2, D-Trp^8 -somatostatin was tested for its in vivo activity in inhibiting glucagon and insulin secretion upon stimulation with L-alanine. Normal mongrel dogs of either sex were fasted overnight. Control blood samples were obtained, and then an intravenous infusion of saline, somatostatin, or D-Ser^2, D-Trp^8 -somatostatin was started. After 30 minutes, L-alanine additionally was administered intravenously for a period of 15 minutes. The infusion of saline, somatostatin, or D-Ser^2, D-Trp^8 -somatostatin was continued for 15 minutes after completion of the L-alanine infusion. From the above it was determined that the minimal effective concentration of D-Ser^2, D-Trp^8 -somatostatin is about 25 nanograms/kg./min. whereas the minimal effective concentration of somatostatin is about 100 nanograms/kg./min.
# [2] = system: gastric HCl secretion induced by the C-terminal tetrapeptide of gastrin; assay: in vivo inhibition of gastric acid secretion in dogs with chronic fistula and Heidenhain pouch
# Procedure: D-Ser^2, D-Trp^8 -somatostatin was tested in dogs for its in vivo inhibition of gastric acid secretion. In six dogs with chronic fistula and Heidenhain pouch, gastric HCl secretion was induced by infusion of the C-terminal tetrapeptide of gastrin at 0.5 μg/kg-hr. Each dog served as its own control, receiving on a separate day only the tetrapeptide. On another day, the six dogs received the tetrapeptide, and, after one hour of steady state secretion of HCl, D-Ser^2, D-Trp^8 -somatostatin was infused at 0.20 μg/kg-hr. for one hour. Collection of gastric acid samples was continued for an additional 1.5 hours at 15 minute intervals. The samples were titrated to pH 7 with an automatic titrator. The maximal inhibitory effect of the D-Ser^2, D-Trp^8 -somatostatin was extrapolated against the dose-response curve of somatostatin, and the relative potency of the analog to that of somatostatin is expressed as percent activity. D-Ser^2, D-Trp^8 -somatostatin inhibited steady state acid secretion induced by the C-terminal tetrapeptide of gastrin by 73.5 ± 4.8% standard error of mean. This effect is equivalent to that of 0.545 μg/kg-hr. of somatostatin. Its activity relative to that of somatostatin thus is 273%.
# pancreatic secretion = assay: inhibition of pancreatic secretion in dogs with pancreatic and total gastric fistula; assay type: in vivo
# Procedure: In three dogs having both pancreatic and total gastric fistula, secretion from the pancreas was induced by infusion of […] at 2 units/kg-hr. and cholecystokinin at 0.45 unit/kg-hr., and gastric HCl by infusion of tetragastrin at 0.5 μg/kg-hr. After a steady response was established, each dog received D-Ser^2, D-Trp^8 -somatostatin for one hour at 0.2 μg/kg-hr. The peak inhibitory effect expressed as percent change over control for total protein was -76%. This corresponds to the inhibitory effect obtained by administration of about 0.6 μg/kg-hr. of somatostatin.
# gut motility = assay: action on gut motility in conscious dogs (intralumenal pressure); assay type: in vivo; conditions: intravenous infusion over ten minutes, pylorus, duodenum, antrum
# Procedure: D-Ser^2, D-Trp^8 -somatostatin also was tested for its action on gut motility in conscious dogs. Three dogs having intralumenal catheters placed in the antrum, duodenum, and pylorus were used. Pressure changes in the gut lumen were recorded on a Visicorder using strain gauges and miniature light beam galvanometers. After a steady state control was established, D-Ser^2, D-Trp^8 -somatostatin was infused intravenously over a ten minute period. […] This compared to a minimum effective dose of 0.125-0.25 μg./kg.--10 minutes for somatostatin itself.
# growth hormone secretion = assay: release of growth hormone in sodium pentobarbital-stimulated rats; assay type: in vivo, male Spraque-Dawley rats; conditions: serum GH at 20 minutes
# Procedure: D-Ser^2, D-Trp^8 -somatostatin also was tested for its activity with respect to the release of growth hormone. The procedure which was employed is carried out using male Spraque-Dawley rats weighing 100-120 grams (Laboratory Supply Company, Indianapolis, Ind.). The test is a modification of the method of P. Brazeau, W. Vale, and R. Guilleman, Endocrinology, 94 184 (1974). In this assay, five groups of eight rats each were employed. Sodium pentobarbital was administered intraperitoneally to all of the rats to stimulate growth hormone secretion. One group served as the control and received only saline. Two of the groups received somatostatin, one at 2 μg./rat, subcutaneously, and the other at 50 μg./rat, subcutaneously. The other two groups received D-Ser^2, D-Trp^8 -somatostatin, one at 2 μg./rat, subcutaneously, and the other at 50 μg./rat, subcutaneously. The serum concentration of growth hormone was measured 20 minutes after simultaneous administration of sodium pentobarbital and test compound. The degree of inhibition of serum growth hormone concentration then was determined with respect to the control group, and the relative activities of D-Ser^2, D-Trp^8 -somatostatin and somatostatin itself were compared. […]
smiles,measurement,setting,value
"C[C@H](N)C(=O)N[C@H](CO)C(=O)N[C@H]1CSSC[C@@H](C(=O)O)NC(=O)[C@H](CO)NC(=O)[C@H]([C@@H](C)O)NC(=O)[C@H](Cc2ccccc2)NC(=O)[C@H]([C@@H](C)O)NC(=O)[C@H](CCCCN)NC(=O)[C@@H](Cc2c[nH]c3ccccc23)NC(=O)[C@H](Cc2ccccc2)NC(=O)[C@H](Cc2ccccc2)NC(=O)[C@H](CC(N)=O)NC(=O)[C@H](CCCCN)NC1=O [D-Ser^2, D-Trp^8 -somatostatin] (H-A[dS]CKNFF[dW]KTFTSC-OH; disulfide 3-14)",minimal effective concentration for inhibiting glucagon and insulin secretion,[1],about 25 nanograms/kg./min.
same,dose of somatostatin with equivalent effect on acid secretion,"[2]; analog at 0.20 μg/kg-hr., extrapolated against dose-response curve of somatostatin",0.545 μg/kg-hr.
same,inhibition of steady state acid secretion induced by the C-terminal tetrapeptide of gastrin,"[2]; infused at 0.20 μg/kg-hr. for one hour, ± standard error of mean",73.5 ± 4.8%
same,activity relative to that of somatostatin (gastric acid secretion),[2]; relative potency expressed as percent activity,273%
same,"peak inhibitory effect, percent change over control for total protein","pancreatic secretion; 0.2 μg/kg-hr for one hour, pancreatic secretion induced by secretin and cholecystokinin",-76%
same,dose of somatostatin giving corresponding inhibitory effect on pancreatic secretion,pancreatic secretion; analog at 0.2 μg/kg-hr,about 0.6 μg/kg-hr.
same,effect on intralumenal pressure,gut motility,initially increased the intralumenal pressure in the pylorus and then decreased it whereas the pressure in the duodenum and the antrum remained depressed throughout the test
same,inhibition of growth hormone secretion over control,growth hormone secretion; 2 μg./rat subcutaneously,same effect on growth hormone secretion as somatostatin
same,inhibition of growth hormone secretion over control,growth hormone secretion; 50 μg./rat subcutaneously,66%
